In brackets after ≈: the same amount, converted by molar mass.
Legend:
Type in all cases: functional
Candida albicans = assay: Antifungal activity against Candida albicans MTCC 227 assessed as growth inhibition after 48 hr by broth microdilution method; conditions: MTCC 227, 48 h
Aspergillus niger = assay: Antifungal activity against Aspergillus niger MTCC 282 assessed as growth inhibition after 48 hr by broth microdilution method; conditions: MTCC 282, 48 h
Klebsiella pneumoniae = assay: Antibacterial activity against Klebsiella pneumoniae MTCC 139 assessed as growth inhibition after 24 hr by broth microdilution method; conditions: MTCC 139, 24 h
Pseudomonas aeruginosa = assay: Antibacterial activity against Pseudomonas aeruginosa MTCC 1688 assessed as growth inhibition after 24 hr by broth microdilution method; conditions: MTCC 1688, 24 h
Escherichia coli = assay: Antibacterial activity against Escherichia coli MTCC 443 assessed as growth inhibition after 24 hr by broth microdilution method; conditions: MTCC 443, 24 h
Bacillus cereus = assay: Antibacterial activity against Bacillus cereus MTCC 1305 assessed as growth inhibition after 24 hr by broth microdilution method; conditions: MTCC 1305, 24 h
Staphylococcus aureus = assay: Antibacterial activity against Staphylococcus aureus MTCC 2940 assessed as growth inhibition after 24 hr by broth microdilution method; conditions: MTCC 2940, 24 h

SMILES | MIC (Candida albicans) | MIC (Aspergillus niger) | MIC (Klebsiella pneumoniae) | MIC (Pseudomonas aeruginosa) | MIC (Escherichia coli) | MIC (Bacillus cereus) | MIC (Staphylococcus aureus)
Nc1ccc(S(=O)(=O)NCc2nc3ccccc3c(=O)n2-c2ccccc2)cc1 | 100 µg/mL (≈ 246 µM) | 90 µg/mL (≈ 221 µM) | 95 µg/mL (≈ 234 µM) | 85 µg/mL (≈ 209 µM) | 80 µg/mL (≈ 197 µM) | 95 µg/mL (≈ 234 µM) | 85 µg/mL (≈ 209 µM)
CC(=O)Nc1ccc(S(=O)(=O)NCc2nc3ccccc3c(=O)n2-c2ccccc2)cc1 | 105 µg/mL (≈ 234 µM) | 95 µg/mL (≈ 212 µM) | 130 µg/mL (≈ 290 µM) | 125 µg/mL (≈ 279 µM) | 110 µg/mL (≈ 245 µM) | 115 µg/mL (≈ 256 µM) | 95 µg/mL (≈ 212 µM)
Cc1ccccc1-n1c(CNS(=O)(=O)c2ccc(N)cc2)nc2ccccc2c1=O | 100 µg/mL (≈ 238 µM) | 90 µg/mL (≈ 214 µM) | 100 µg/mL (≈ 238 µM) | 80 µg/mL (≈ 190 µM) | 70 µg/mL (≈ 166 µM) | 105 µg/mL (≈ 250 µM) | 90 µg/mL (≈ 214 µM)
Cc1cccc(-n2c(CNS(=O)(=O)c3ccc(N)cc3)nc3ccccc3c2=O)c1 | 95 µg/mL (≈ 226 µM) | 85 µg/mL (≈ 202 µM) | 115 µg/mL (≈ 273 µM) | 85 µg/mL (≈ 202 µM) | 65 µg/mL (≈ 155 µM) | 100 µg/mL (≈ 238 µM) | 85 µg/mL (≈ 202 µM)
Cc1ccc(-n2c(CNS(=O)(=O)c3ccc(N)cc3)nc3ccccc3c2=O)cc1 | 80 µg/mL (≈ 190 µM) | 75 µg/mL (≈ 178 µM) | 90 µg/mL (≈ 214 µM) | 70 µg/mL (≈ 166 µM) | 65 µg/mL (≈ 155 µM) | 95 µg/mL (≈ 226 µM) | 80 µg/mL (≈ 190 µM)
CC(=O)Nc1ccc(S(=O)(=O)NCc2nc3ccccc3c(=O)n2-c2ccccc2C)cc1 | 90 µg/mL (≈ 195 µM) | 80 µg/mL (≈ 173 µM) | 125 µg/mL (≈ 270 µM) | 120 µg/mL (≈ 259 µM) | 90 µg/mL (≈ 195 µM) | 115 µg/mL (≈ 249 µM) | 100 µg/mL (≈ 216 µM)
CC(=O)Nc1ccc(S(=O)(=O)NCc2nc3ccccc3c(=O)n2-c2cccc(C)c2)cc1 | 80 µg/mL (≈ 173 µM) | 75 µg/mL (≈ 162 µM) | 120 µg/mL (≈ 259 µM) | 115 µg/mL (≈ 249 µM) | 80 µg/mL (≈ 173 µM) | 105 µg/mL (≈ 227 µM) | 95 µg/mL (≈ 205 µM)
CC(=O)Nc1ccc(S(=O)(=O)NCc2nc3ccccc3c(=O)n2-c2ccc(C)cc2)cc1 | 85 µg/mL (≈ 184 µM) | 70 µg/mL (≈ 151 µM) | 115 µg/mL (≈ 249 µM) | 105 µg/mL (≈ 227 µM) | 85 µg/mL (≈ 184 µM) | 105 µg/mL (≈ 227 µM) | 95 µg/mL (≈ 205 µM)
COc1ccccc1-n1c(CNS(=O)(=O)c2ccc(N)cc2)nc2ccccc2c1=O | 65 µg/mL (≈ 149 µM) | 55 µg/mL (≈ 126 µM) | 95 µg/mL (≈ 218 µM) | 80 µg/mL (≈ 183 µM) | 65 µg/mL (≈ 149 µM) | 80 µg/mL (≈ 183 µM) | 85 µg/mL (≈ 195 µM)
COc1cccc(-n2c(CNS(=O)(=O)c3ccc(N)cc3)nc3ccccc3c2=O)c1 | 50 µg/mL (≈ 115 µM) | 50 µg/mL (≈ 115 µM) | 90 µg/mL (≈ 206 µM) | 85 µg/mL (≈ 195 µM) | 60 µg/mL (≈ 137 µM) | 75 µg/mL (≈ 172 µM) | 80 µg/mL (≈ 183 µM)
COc1ccc(-n2c(CNS(=O)(=O)c3ccc(N)cc3)nc3ccccc3c2=O)cc1 | 55 µg/mL (≈ 126 µM) | 45 µg/mL (≈ 103 µM) | 75 µg/mL (≈ 172 µM) | 75 µg/mL (≈ 172 µM) | 50 µg/mL (≈ 115 µM) | 70 µg/mL (≈ 160 µM) | 60 µg/mL (≈ 137 µM)
Cc1ccccc1-n1c(C)nc2ccccc2c1=O [METHAQUALONE] | 125 µg/mL (≈ 499 µM) | 90 µg/mL (≈ 360 µM) | 115 µg/mL (≈ 459 µM) | 100 µg/mL (≈ 400 µM) | 75 µg/mL (≈ 300 µM) | 140 µg/mL (≈ 559 µM) | 125 µg/mL (≈ 499 µM)
Nc1ccc(S(N)(=O)=O)cc1 [SULFANILAMIDE] | 60 µg/mL (≈ 348 µM) | 50 µg/mL (≈ 290 µM) | 80 µg/mL (≈ 465 µM) | 65 µg/mL (≈ 377 µM) | 55 µg/mL (≈ 319 µM) | 55 µg/mL (≈ 319 µM) | 50 µg/mL (≈ 290 µM)
